# Experiments:
# Test in all cases: two-electrode voltage clamp, micro-transplanted oocytes
# Type in all cases: cell-based
# [1] = target: AMPA receptor with TARP gamma-8 (native, rat hippocampal synaptosomes) (Rattus norvegicus, UniProt P19490+P19491+Q8VHW5); conditions: read-out: % inhibition at 10 μM
# [2] = tested on: NMDA receptor (native synaptic, rat prefrontal cortex synaptosomes); conditions: 300 µM NMDA, 30 µM glycine, -100 mV, pH 7.4
# [3] = tested on: AMPA receptor (native synaptic, human cortical synaptosomes); conditions: antagonist; 100 µM AMPA + 100 µM cyclothiazide; -100 mV, pH 7.4
# [4] = tested on: AMPA receptor (native synaptic, rat prefrontal cortex synaptosomes); conditions: antagonist; 100 µM AMPA + 30 µM cyclothiazide; -100 mV, pH 7.4
# [5] = tested on: GABAA receptor (native synaptic, human cortical synaptosomes); conditions: positive allosteric modulator; 30 µM GABA; legend says 212% potentiation
# AMPA receptor with TARP gamma-8 (native, rat hippocampal synaptosomes), sequence (Q8VHW5 whole entry): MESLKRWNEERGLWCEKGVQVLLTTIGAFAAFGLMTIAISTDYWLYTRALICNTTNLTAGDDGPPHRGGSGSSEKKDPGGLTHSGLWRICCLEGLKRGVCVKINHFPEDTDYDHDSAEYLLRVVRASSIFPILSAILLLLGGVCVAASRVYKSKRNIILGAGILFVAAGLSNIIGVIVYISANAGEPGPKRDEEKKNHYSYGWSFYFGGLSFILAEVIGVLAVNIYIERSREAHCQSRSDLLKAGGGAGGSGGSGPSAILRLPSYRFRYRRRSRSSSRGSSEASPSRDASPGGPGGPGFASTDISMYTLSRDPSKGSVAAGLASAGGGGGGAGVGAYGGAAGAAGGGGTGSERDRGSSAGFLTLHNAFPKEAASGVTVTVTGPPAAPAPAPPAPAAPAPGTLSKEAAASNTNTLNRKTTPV
# AMPA receptor with TARP gamma-8 (native, rat hippocampal synaptosomes), sequence (P19490 19-907): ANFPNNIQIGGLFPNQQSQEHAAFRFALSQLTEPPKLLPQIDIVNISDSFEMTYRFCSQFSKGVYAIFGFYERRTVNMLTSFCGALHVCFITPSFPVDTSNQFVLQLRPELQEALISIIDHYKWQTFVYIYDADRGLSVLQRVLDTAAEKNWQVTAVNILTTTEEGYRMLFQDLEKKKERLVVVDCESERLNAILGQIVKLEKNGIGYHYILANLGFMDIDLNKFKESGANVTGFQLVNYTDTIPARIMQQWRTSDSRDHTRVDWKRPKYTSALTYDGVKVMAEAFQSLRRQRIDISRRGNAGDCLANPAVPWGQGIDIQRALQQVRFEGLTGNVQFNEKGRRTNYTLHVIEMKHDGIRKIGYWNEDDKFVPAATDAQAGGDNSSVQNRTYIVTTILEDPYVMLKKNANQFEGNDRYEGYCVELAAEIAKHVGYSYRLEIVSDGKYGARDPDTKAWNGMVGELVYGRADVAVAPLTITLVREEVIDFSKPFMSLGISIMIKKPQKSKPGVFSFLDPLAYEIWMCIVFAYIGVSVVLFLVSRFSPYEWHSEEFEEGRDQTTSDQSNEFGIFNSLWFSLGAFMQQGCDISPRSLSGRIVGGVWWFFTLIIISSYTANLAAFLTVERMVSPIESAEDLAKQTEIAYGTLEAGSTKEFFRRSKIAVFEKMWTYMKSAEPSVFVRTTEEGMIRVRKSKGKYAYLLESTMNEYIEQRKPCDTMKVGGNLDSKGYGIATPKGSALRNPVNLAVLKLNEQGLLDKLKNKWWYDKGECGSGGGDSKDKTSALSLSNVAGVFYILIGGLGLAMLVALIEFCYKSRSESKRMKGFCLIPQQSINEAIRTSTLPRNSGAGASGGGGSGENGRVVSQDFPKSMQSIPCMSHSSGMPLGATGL
# AMPA receptor with TARP gamma-8 (native, rat hippocampal synaptosomes), sequence (P19491 22-883): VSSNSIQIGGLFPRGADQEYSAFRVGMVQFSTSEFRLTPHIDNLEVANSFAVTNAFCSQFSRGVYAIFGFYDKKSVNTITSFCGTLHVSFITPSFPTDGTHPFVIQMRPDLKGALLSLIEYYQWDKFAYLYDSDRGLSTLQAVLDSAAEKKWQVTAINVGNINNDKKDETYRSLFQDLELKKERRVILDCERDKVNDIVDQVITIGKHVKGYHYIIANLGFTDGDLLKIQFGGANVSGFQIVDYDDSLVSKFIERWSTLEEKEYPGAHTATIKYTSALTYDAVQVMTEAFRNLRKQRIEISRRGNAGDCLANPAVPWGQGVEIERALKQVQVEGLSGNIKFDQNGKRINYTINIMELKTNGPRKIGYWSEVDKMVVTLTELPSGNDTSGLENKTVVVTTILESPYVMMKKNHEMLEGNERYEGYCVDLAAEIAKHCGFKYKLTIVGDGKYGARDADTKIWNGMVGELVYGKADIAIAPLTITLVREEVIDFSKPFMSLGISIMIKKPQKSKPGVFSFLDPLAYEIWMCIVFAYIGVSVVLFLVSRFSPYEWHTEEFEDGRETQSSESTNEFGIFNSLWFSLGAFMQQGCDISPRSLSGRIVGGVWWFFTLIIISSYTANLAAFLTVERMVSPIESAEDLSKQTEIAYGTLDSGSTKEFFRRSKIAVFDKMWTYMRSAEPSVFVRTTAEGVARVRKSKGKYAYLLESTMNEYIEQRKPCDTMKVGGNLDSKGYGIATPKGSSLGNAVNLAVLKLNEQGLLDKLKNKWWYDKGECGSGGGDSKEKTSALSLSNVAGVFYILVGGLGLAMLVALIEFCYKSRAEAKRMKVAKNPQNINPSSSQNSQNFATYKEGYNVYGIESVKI
smiles,measurement,setting,value
C[C@@H](c1ccc2[nH]c(=O)sc2c1)c1ccn(-c2ccc(OCCO)cn2)n1 [LY3130481],inhibition at 10 µM,[1],55 ± 6.8%
C[C@]12N[C@H](Cc3ccccc31)c1ccccc12 [MK801],% inhibition at 1 μM,[2]; non-competitive antagonist,100%
CC(C(O)c1ccc(O)cc1)N1CCC(Cc2ccccc2)CC1 (stereo not drawn) [ifenprodil],% inhibition at 10 μM,[2]; GluN2B-selective antagonist,75%
N#Cc1ccccc1-c1cc(-c2ccccn2)cn(-c2ccccc2)c1=O [perampanel],% inhibition at 30 μM,[3],91%
same,% inhibition at 30 μM,[4],97%
Cc1ccc(-c2nc3ccc(C)cn3c2CC(=O)N(C)C)cc1 [zolpidem],% of control at 1 μM,[5],212%

# Reference: paper PMC4961579 (Journal of neurochemistry, 2016)
